Here are results for 20 compounds from US20190047966A1, “NOVEL COMPOUND AND PHARMACOLOGICALLY ACCEPTABLE SALT THEREOF” (MEIJI SEIKA PHARMA CO., LTD., priority 2016, published 2019).

The structures appear in SMILES notation. Where a name gives a salt, the structure may show the parent alone.

Assay [1] concerns the target human histamine H1 receptor (Homo sapiens, UniProt P35367). Nature of the assay: Evaluation of Human H1 Receptor Affinity ([3H]pyrilamine binding). Further details: purchased PerkinElmer Inc; host or cells: CHO-K1. To be noted: inhibition constant Ki, CHO-K1 membrane preparation. The method, then: Test Example 1: Evaluation of Human H1 Receptor Affinity
Membrane preparation from recombinant CHO-K1 cell expressing the human histamine H1 receptor (PerkinElmer Inc.), radiolabeled ligand 1.2 nM [^3H]pyrilamine (PerkinElmer Inc.), and test compounds dissolved in DMSO were reacted at 25° C. for 3 hours in a buffering solution containing 50 mM tris-hydrochloric acid, pH 7.4, and 5 mM magnesium chloride on a 96 well plate, followed by filtration using a GF/B filter (PerkinElmer Inc.) pretreated with 0.3% polyethylenimine. The residue was washed four times with a buffering solution of 50 mM tris-hydrochloric acid, pH 7.4. Thereafter, a scintillation cocktail (MicroScint 20: PerkinElmer Inc.) was added to the GF/B filter, and the radioactivity of each well was measured using a liquid scintillation counter for 96-well (TopCount: PerkinElmer Inc.). The non-specific binding was evaluated in the presence of 1.0 μM pyrilamine. The inhibition constant Ki was calculated from the 50% inhibitory concentration (IC50 value) obtained in each test and the Kd value (1.1 nM) unique to this assay system, according to the Cheng-Prusoff equation.

Assay [2] addresses T1, human histamine H4 receptor (Homo sapiens, UniProt Q9H3N8).
T1 construct: purchased PerkinElmer Inc; host or cells: CHO-K1
Put plainly: Evaluation of Human H4 Receptor Affinity ([3H]histamine binding). To be noted: inhibition constant Ki, CHO-K1 membrane preparation, read-out: Evaluation of H4 Receptor Affinity. As to the method:
Test Example 2: Evaluation of Human H4 Receptor Affinity
Membrane preparation from recombinant CHO-K1 cell expressing the human histamine H4 receptor (PerkinElmer Inc.), radiolabeled ligand 8.2 nM [^3H]histamine (PerkinElmer Inc.), and compounds dissolved in DMSO were reacted at 25° C. for 90 minutes in a buffering solution containing 50 mM tris-hydrochloric acid, pH 7.4, and 1.25 mM EDTA on a 96 well plate, followed by filtration using a GF/B filter (PerkinElmer Inc.) pretreated with 0.3% polyethylenimine. The residue was washed four times with a buffering solution of 50 mM tris-hydrochloric acid, pH 7.4. Thereafter, a scintillation cocktail (MicroScint 20: PerkinElmer Inc.) was added to the GF/B filter, and the radioactivity of each well was measured using a liquid scintillation counter for 96-well (TopCount: PerkinElmer Inc.). The non-specific binding was evaluated in the presence of 1.0 μM histamine. The inhibition constant Ki was calculated from the 50% inhibitory concentration (IC50 value) obtained in each test and the Kd value (5.7 nM) unique to this assay system, according to the Cheng-Prusoff equation.

T1 sequence (Q9H3N8 whole entry): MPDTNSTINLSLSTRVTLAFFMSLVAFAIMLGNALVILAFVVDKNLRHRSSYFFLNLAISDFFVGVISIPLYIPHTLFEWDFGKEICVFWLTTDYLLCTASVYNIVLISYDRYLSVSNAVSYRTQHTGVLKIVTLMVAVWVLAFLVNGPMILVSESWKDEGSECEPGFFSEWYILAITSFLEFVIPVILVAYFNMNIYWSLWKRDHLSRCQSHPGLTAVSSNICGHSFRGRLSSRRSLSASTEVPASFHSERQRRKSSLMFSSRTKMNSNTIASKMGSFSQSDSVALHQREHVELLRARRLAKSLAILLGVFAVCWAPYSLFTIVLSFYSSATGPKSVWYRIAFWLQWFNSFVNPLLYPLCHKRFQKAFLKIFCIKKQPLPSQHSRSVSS
human histamine H1 receptor, sequence (P35367 whole entry): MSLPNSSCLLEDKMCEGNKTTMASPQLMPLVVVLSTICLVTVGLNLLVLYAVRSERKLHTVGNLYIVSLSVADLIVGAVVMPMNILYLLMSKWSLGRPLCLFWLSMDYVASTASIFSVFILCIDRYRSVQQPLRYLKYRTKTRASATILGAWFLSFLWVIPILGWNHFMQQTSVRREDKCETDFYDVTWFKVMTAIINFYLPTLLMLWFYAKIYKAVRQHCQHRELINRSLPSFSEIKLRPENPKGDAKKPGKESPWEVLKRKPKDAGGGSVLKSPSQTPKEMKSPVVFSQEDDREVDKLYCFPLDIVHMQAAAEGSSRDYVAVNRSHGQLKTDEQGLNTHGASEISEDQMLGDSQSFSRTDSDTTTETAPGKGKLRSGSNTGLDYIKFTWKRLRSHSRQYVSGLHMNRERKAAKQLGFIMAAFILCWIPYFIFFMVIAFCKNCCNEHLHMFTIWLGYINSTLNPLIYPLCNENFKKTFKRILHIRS

`Nc1nc2c(c(N3CCN(CCOC4CC5C(C4)C5C(=O)O)CC3)n1)CCc1cc(OCc3ccc(OC(F)(F)F)cc3)ccc1-2` (mixture of isomers) [Example 35, 3-(2-(4-(2-amino-8-((4-(trifluoromethoxy)benzyl)oxy)-5,6-dihydrobenzo[h]quinazolin-4-yl)piperazin-1-yl)ethoxy)bicyclo[3.1.0]hexane-6-carboxylic acid]: the Ki in assay [1] and in assay [2] was under 100 nM throughout.

In the case of `COC(=O)[C@@H]1CC[C@H](COCCN2CCN(c3nc(N)nc4c3CCc3cc(OCc5ccc(Cl)cc5)ccc3-4)CC2)C1` (relative stereo) [153(a), methyl cis-3-((2-(4-(2-amino-8-((4-chlorobenzyl)oxy)-5,6-dihydrobenzo[h]quinazolin-4-yl)piperazin-1-yl)ethoxy)methyl)cyclopentane-l-carboxylate], the Ki in assay [1] and in assay [2] was under 100 nM in each case.

As for `Nc1nc2c(c(N3CCN(CCOC[C@H]4CC[C@@H](C(=O)O)C4)CC3)n1)CCc1cc(OCc3ccc(Cl)cc3)ccc1-2` (relative stereo) [153(b), cis-3-((2-(4-(2-amino-8-((4-chlorobenzyl)oxy)-5,6-dihydrobenzo[h]quinazolin-4-yl)piperazin-1-yl)ethoxy)methyl)cyclopentane-l-carboxylic acid], the Ki in assay [1] and in assay [2] was under 100 nM in each case.

Consider `Nc1nc2c(c(N3CCN(CCOC[C@H]4CC[C@@H](C(=O)O)C4)CC3)n1)CCc1cc(OCc3ccc(OC(F)(F)F)cc3)ccc1-2` (relative stereo) [Example 155], for which the Ki in assay [1] and in assay [2] was under 100 nM throughout.

Turning to `Nc1nc2c(c(N3CCN(CCOC[C@@H]4CC[C@H](C(=O)O)O4)CC3)n1)CCc1cc(OCc3ccc(Cl)cc3)ccc1-2` (relative stereo) [Example 171, cis-5-((2-(4-(2-amino-8-((4-chlorobenzyl)oxy)-5,6-dihydrobenzo[h]quinazolin-4-yl)piperazin-1-yl)ethoxy)methyl)tetrahydrofuran-2-carboxylic acid], the values for the Ki in assay [1] and in assay [2] were under 100 nM and 100 to 500 nM, respectively.

For `Nc1nc2c(c(N3CCN(CCOC[C@H]4C[C@@H](C(=O)O)O4)CC3)n1)CCc1cc(OCc3ccc(OC(F)(F)F)cc3)ccc1-2` (relative stereo) [Example 176], the Ki in assay [1] is under 100 nM; in assay [2], 100 to 500 nM.

Take `Nc1nc2c(c(N3CCN(CCOC[C@H]4C[C@H](C(=O)O)O4)CC3)n1)CCc1cc(OCc3ccc(OC(F)(F)F)cc3)ccc1-2` (relative stereo) [Example 177, trans-4-((2-(4-(2-amino-8-((4-(trifluoromethoxy)benzyl)oxy)-5,6-dihydrobenzo[h]quinazolin-4-yl)piperazin-1-yl)ethoxy)methyl)oxetane-2-carboxylic acid]: the values for the Ki in assay [1] and in assay [2] were under 100 nM and 100 to 500 nM, respectively.

Consider `Nc1nc2c(c(N3CCN(CCOC[C@@H]4CCC[C@H](C(=O)O)C4)CC3)n1)CCc1cc(OCc3ccc(OC(F)(F)F)cc3)ccc1-2` (relative stereo) [Example 186, cis-3-((2-(4-(2-amino-8-((4-(trifluoromethoxy)benzyl)oxy)-5,6-dihydrobenzo[h]quinazolin-4-yl)piperazin-1-yl)ethoxy)methyl)cyclohexane-1-carboxylic acid dihydrochloride], for which the Ki in assay [1] and in assay [2] was under 100 nM each time.

For `CC(Oc1ccc2c(c1)CCc1c-2nc(N)nc1N1CCN(CCO[C@H]2C[C@@H](C(=O)O)C2)CC1)c1ccc(OC(F)(F)F)cc1` (relative stereo) [Example 209, cis-3-(2-(4-(2-amino-8-(1-(4-(trifluoromethoxy)phenyl)ethoxy)-5,6-dihydrobenzo[h]quinazolin-4-yl)piperazin-1-yl)ethoxy)cyclobutane-1-carboxylic acid], the Ki in assay [1] and in assay [2] was under 100 nM each time.

In the case of `COC(=O)COCCOCCN1CCN(c2nc(N)nc3c2CCc2cc(OCc4ccc(Cl)cc4)ccc2-3)CC1` [11(a), methyl 2-(2-(2-(4-(2-amino-8-((4-chlorobenzyl)oxy)-5,6-dihydrobenzo[h]quinazolin-4-yl)piperazin-1-yl)ethoxy)ethoxy)acetate], the Ki in assay [1] and in assay [2] was under 100 nM throughout.

With `COC(=O)c1cccc(COCCN2CCN(c3nc(N)nc4c3CCc3cc(OCc5ccc(Cl)cc5)ccc3-4)CC2)c1` [15(a), methyl 3-((2-(4-(2-amino-8-((4-chlorobenzyl)oxy)-5,6-dihydrobenzo[h]quinazolin-4-yl)piperazin-1-yl)ethoxy)methyl)benzoate], the Ki in assay [1] was under 100 nM; in assay [2], 100 to 500 nM.

Take `COC(=O)c1cccc(COCCN2CCN(c3nc(N)nc4c3CCc3cc(OCc5ccc(OC(F)(F)F)cc5)ccc3-4)CC2)c1` [16(a), methyl 3-((2-(4-(2-amino-8-((4-(trifluoromethoxy)benzyl)oxy)-5,6-dihydrobenzo[h]quinazolin-4-yl)piperazin-1-yl)ethoxy)methyl)benzoate]: the Ki in assay [1] was under 100 nM; in assay [2], 100 to 500 nM.

With `COC(=O)c1cc(COCCN2CCN(c3nc(N)nc4c3CCc3cc(OCc5ccc(Cl)cc5)ccc3-4)CC2)ccc1F` [17(a), methyl 5-((2-(4-(2-amino-8-((4-chlorobenzyl)oxy)-5,6-dihydrobenzo[h]quinazolin-4-yl)piperazin-1-yl)ethoxy)methyl)-2-fluorobenzoate], the Ki in assay [1] and in assay [2] was under 100 nM each time.

Regarding `COC(=O)c1cccc(COCCN2CCN(c3nc(N)nc4c3CCc3cc(OCc5ccc(Cl)cc5)ccc3-4)CC2)n1` [18(a), methyl 6-((2-(4-(2-amino-8-((4-chlorobenzyl)oxy)-5,6-dihydrobenzo[h]quinazolin-4-yl)piperazin-1-yl)ethoxy)methyl)picolinate], the Ki in assay [1] and in assay [2] was under 100 nM throughout.

Regarding `COC(=O)c1ccc(OCCN2CCN(c3nc(N)nc4c3CCc3cc(OCc5ccc(Cl)cc5)ccc3-4)CC2)cc1` [19(a), methyl 4-(2-(4-(2-amino-8-((4-chlorobenzyl)oxy)-5,6-dihydrobenzo[h]quinazolin-4-yl)piperazin-1-yl)ethoxy)benzoate], the Ki in assay [1] and in assay [2] was 100 to 500 nM each time.

As to `COC(=O)c1ccc(COCCN2CCN(c3nc(N)nc4c3CCc3cc(OCc5ccc(OC(F)(F)F)cc5)ccc3-4)CC2)o1` [20(a), methyl 5-((2-(4-(2-amino-8-((4-(trifluoromethoxy)benzyl)oxy)-5,6-dihydrobenzo[h]quinazolin-4-yl)piperazin-1-yl)ethoxy)methyl)furan-2-carboxylate], the values for the Ki in assay [1] and in assay [2] were under 100 nM and 100 to 500 nM, respectively.

For the compound `CCOC(=O)[C@]1(C)C[C@@H](OCCN2CCN(c3nc(N)nc4c3CCc3cc(OCc5ccc(Cl)cc5)ccc3-4)CC2)C1` [25(a), ethyl trans-3-(2-(4-(2-amino-8-((4-chlorobenzyl)oxy)-5,6-dihydrobenzo[h]quinazolin-4-yl)piperazin-1-yl)ethoxy)-1-methylcyclobutane-1-carboxylate], the Ki in assay [1] is under 100 nM; in assay [2], 100 to 500 nM.

Take `C[C@]1(C(=O)O)C[C@H](OCCN2CCN(c3nc(N)nc4c3CCc3cc(OCc5ccc(Cl)cc5)ccc3-4)CC2)C1` [25(b), trans-3-(2-(4-(2-amino-8-((4-chlorobenzyl)oxy)-5,6-dihydrobenzo[h]quinazolin-4-yl)piperazin-1-yl)ethoxy)-1-methylcyclobutane-1-carboxylic acid]: the Ki in assay [1] and in assay [2] was under 100 nM each time.

As for `CCOC(=O)[C@]1(C)C[C@H](OCCN2CCN(c3nc(N)nc4c3CCc3cc(OCc5ccc(Cl)cc5)ccc3-4)CC2)C1` [26(a), ethyl cis-3-(2-(4-(2-amino-8-((4-chlorobenzyl)oxy)-5,6-dihydrobenzo[h]quinazolin-4-yl)piperazin-1-yl)ethoxy)-1-methylcyclobutane-1-carboxylate], the Ki in assay [1] is under 100 nM; in assay [2], 100 to 500 nM.

As to `C[C@]1(C(=O)O)C[C@@H](OCCN2CCN(c3nc(N)nc4c3CCc3cc(OCc5ccc(Cl)cc5)ccc3-4)CC2)C1` [26(b), cis-3-(2-(4-(2-amino-8-((4-chlorobenzyl)oxy)-5,6-dihydrobenzo[h]quinazolin-4-yl)piperazin-1-yl)ethoxy)-1-methylcyclobutane-1-carboxylic acid], the results for the Ki in assay [1] and in assay [2] were under 100 nM and 100 to 500 nM, respectively.
